Test: GSK PKIS2: Screen against O. lienalis microfilariae, single point, at 3.1uM to assess reduction in motility. Compounds were also tested for cytotoxicity against Rhesus Monkey LLCMK2 cells.
Assay type: functional, Onchocerca lienalis, LLC-MK2
Settings: CELL_LINE LLCMK2; CELL_SUPPLIER ECACC; CONC 3.1 uM; ORGANISM_SUPPLIER Extracted from peri-umbilical skin obtained from naturally infected cattle in the UK; temperature 37 degree C

`Oc1ccc(-c2[nH]c(-c3ccccc3)nc2-c2ccncc2)cc1` and `N#Cc1ccc(-c2cc(-c3c[nH]nc3-c3ccccn3)ccn2)cc1` are the same in “MOTILITY REDUCTION/CYTOTOXICITY” value: 0% for the first, 0% for the second.

`Cc1cccc(-c2nc(Nc3ccncc3)c3ccccc3n2)n1` and `Nc1nc(-c2ccccn2)c(-c2ccnc3ccccc23)s1` are the same in “MOTILITY REDUCTION/CYTOTOXICITY” value: 0% for the first, 0% for the second.

Going from `Oc1ccc2ncnc(Nc3ccc(OCc4ccccc4)cc3)c2c1` to `Cn1cncc1-c1cc2c(Nc3ccc(OCc4ccccc4)cc3)ncnc2cn1`, the “MOTILITY REDUCTION/CYTOTOXICITY” value falls from 100% to 0%.

`COc1cc2nccc(Nc3ccc(NC(=O)c4ccc(C)cc4)c(O)c3)c2cc1OC` and `Cc1ccc(C(=O)Nc2ccc(Nc3ccnc4cc(-c5ccccn5)ccc34)cc2O)cc1` are the same in “MOTILITY REDUCTION/CYTOTOXICITY” value: 0% for the first, 0% for the second.

`O=c1cc(N2CCOCC2)nc2n(Cc3ccc(F)c(Cl)c3)ccn12` and `Cc1cccc(Cn2ccn3c(=O)cc(N4CCOCC4)nc23)c1` are the same in “MOTILITY REDUCTION/CYTOTOXICITY” value: 0% for the first, 0% for the second.

`Fc1ccccc1COc1ccc(Nc2ncnc3ccc(-c4nnc(C(F)(F)F)o4)cc23)cc1Cl` and `COc1cc2ncnc(Nc3ccc(OCc4ccccc4Br)c(Cl)c3)c2cc1OC.Cl` are the same in “MOTILITY REDUCTION/CYTOTOXICITY” value: 0% for the first, 0% for the second.

`Nc1nccc(-c2c(-c3ccc(F)cc3)ncn2C2CCN(Cc3ccccc3)CC2)n1` and `Fc1ccc(-c2ncn(C3CCNCC3)c2-c2ccnc(Oc3ccc(-c4ccccc4)cc3)n2)cc1` are the same in “MOTILITY REDUCTION/CYTOTOXICITY” value: 0% for the first, 0% for the second.

`COc1cc(Nc2nccc(N3CCC(NC(=O)c4cc5ccccc5s4)C3)n2)cc(OC)c1OC` (centres undefined) and `COc1cc(Nc2nccc(N3CCC(NC(=O)Nc4cc(C)ccc4C)C3)n2)cc(OC)c1OC` (centres undefined) are the same in “MOTILITY REDUCTION/CYTOTOXICITY” value: 0% for the first, 0% for the second.

`CN(c1ccc2c(c1)nc(NCc1ccccc1)n2C)c1ccnc(Nc2ccc(CS(C)(=O)=O)cc2)n1` and `Cc1c2ccc(N(C)c3ccnc(Nc4cccc(S(N)(=O)=O)c4)n3)cc2nn1Cc1ccccc1` are the same in “MOTILITY REDUCTION/CYTOTOXICITY” value: 0% for the first, 0% for the second.

`Cc1ccccc1-c1cc(-c2c[nH]nc2-c2ccccn2)ccn1` and `COc1cccc(-c2cc(-c3c[nH]nc3-c3ccccn3)ccn2)c1` are the same in “MOTILITY REDUCTION/CYTOTOXICITY” value: 0% for the first, 0% for the second.

First: Cc1ccc(NC(=O)c2ccnc(N3CCCCC3)c2)cc1-c1ccc(C(=O)NCC2CC2)cc1
Second: Cc1ccc(NC(=O)c2cccc(N3CCCCC3)c2)cc1-c1ccc(C(=O)NCC2CC2)cc1
The “MOTILITY REDUCTION/CYTOTOXICITY” value of the first is lower: 0% for the first, 20% for the second.

Compared with `CSc1nccc(-c2c(-c3ccc(F)cc3)ncn2CCCN2CCOCC2)n1`, `CNc1nccc(-c2c(-c3ccc(F)cc3)ncn2CCCN2CCOCC2)n1` is lower in “MOTILITY REDUCTION/CYTOTOXICITY” value: 33.4% for the first, 0% for the second.

`O=C(Nc1n[nH]c2nc(-c3ccccc3)c(Br)cc12)C1CC1` and `O=C(Nc1n[nH]c2nc(-c3nccs3)c(Br)cc12)C1CC1` are the same in “MOTILITY REDUCTION/CYTOTOXICITY” value: 20% for the first, 20% for the second.

`Cc1c(Cn2c(C)c(C)n3c(=O)cc(N4CCOCC4)nc23)cccc1C(F)(F)F` and `Cc1c(Cn2c3ccccc3n3c(=O)cc(N4CCOCC4)nc23)cccc1C(F)(F)F` are the same in “MOTILITY REDUCTION/CYTOTOXICITY” value: 0% for the first, 0% for the second.

Going from `c1ccc(-c2cc3ccncc3cc2OC2CCNCC2)cc1` to `NC(=O)c1cc(-c2ccccc2)cc2c(C3CCNCC3)c[nH]c12`, the “MOTILITY REDUCTION/CYTOTOXICITY” value falls from 93.4% to 0%.

First: COc1ccc(Nc2nccc(N3CCC(NC(=O)Nc4ccc5c(c4)OCO5)C3)n2)cc1 (centres undefined)
Second: COC(=O)c1cccc(NC(=O)NC2CCN(c3ccnc(Nc4ccc(OC)cc4)n3)C2)c1 (centres undefined)
The “MOTILITY REDUCTION/CYTOTOXICITY” value of the first is lower: 20% for the first, 66.7% for the second.

First: CCCCc1nn2ncccc2c1-c1ccnc(NC2CC2)n1
Second: FC(F)(F)c1cc(Br)cc(Nc2nccc(-c3cnn4ncccc34)n2)c1
The “MOTILITY REDUCTION/CYTOTOXICITY” value of the first is lower: 0% for the first, 46.7% for the second.

Going from `COc1ccc(Nc2nccc(N3CCC(NS(=O)(=O)c4ccc(NC(C)=O)cc4)C3)n2)cc1` (centres undefined) to `COc1ccc(Nc2nccc(N3CCC(NC(=O)c4cccc(C#N)c4)C3)n2)cc1` (centres undefined), the “MOTILITY REDUCTION/CYTOTOXICITY” value falls from 33.4% to 0%.

`C[C@@H]1CC[C@@H](C(=O)Nc2ccccc2)CN1c1cc(-c2ccc3c(N)n[nH]c3c2)nc(N)n1` and `C[C@H]1CC[C@@H](C(=O)Nc2ccccc2)CN1c1cc(-c2ccc3c(N)n[nH]c3c2)nc(N)n1` are the same in “MOTILITY REDUCTION/CYTOTOXICITY” value: 0% for the first, 0% for the second.

`Nc1nc(-c2ccc3c(N)n[nH]c3c2)cc(N2CCCC(NC(=O)c3ccccc3)C2)n1` (centres undefined) and `Nc1nc(-c2ccc3c(N)n[nH]c3c2)cc(N2CCCCC2)n1` are the same in “MOTILITY REDUCTION/CYTOTOXICITY” value: 0% for the first, 0% for the second.

Going from `O=C1NC(=O)C(N2CCc3ccccc32)=C1c1ccccc1Cl` to `CSc1ccc(NC2=C(c3ccccc3Cl)C(=O)NC2=O)cc1`, the “MOTILITY REDUCTION/CYTOTOXICITY” value falls from 20% to 0%.

Going from `N#Cc1cccc(C(=O)NC2CCN(c3ccnc(Nc4ccc(F)cc4)n3)C2)c1` (centres undefined) to `COc1ccc(CNC(=O)NC2CCN(c3ccnc(Nc4ccc(F)cc4)n3)CC2)cc1`, the “MOTILITY REDUCTION/CYTOTOXICITY” value rises from 20% to 33.4%.

`Cn1ccc(-c2cccc(Nc3ccnc4cc(-c5nccs5)ccc34)c2)n1` and `Nc1nc(-c2nccs2)c(-c2ccnc3ccccc23)s1` are the same in “MOTILITY REDUCTION/CYTOTOXICITY” value: 0% for the first, 0% for the second.

Compared with `Cc1ccc(NC(=O)Nc2ccc(Cl)c(C(F)(F)F)c2)cc1-c1ccc(C(=O)Nc2ccncc2)cc1`, `Cc1ccc(NC(=O)Nc2ccccc2F)cc1-c1ccc(C(=O)Nc2ccncc2)cc1` is higher in “MOTILITY REDUCTION/CYTOTOXICITY” value: 40% for the first, 53.4% for the second.

Compared with `COc1cccc(-c2ccc3c(NC(=O)C4CC4)n[nH]c3n2)c1`, `COc1ccccc1-c1ccc2c(NC(=O)C3CC3)n[nH]c2n1` is lower in “MOTILITY REDUCTION/CYTOTOXICITY” value: 20% for the first, 0% for the second.

First: O=C(Nc1n[nH]c2nc(-c3ccc(O)cc3)ccc12)C1CC1
Second: O=C(Nc1n[nH]c2cc(-c3ccsc3)ccc12)C1CC1
The “MOTILITY REDUCTION/CYTOTOXICITY” value of the first is higher: 33.4% for the first, 0% for the second.

Compared with `CN(C)CCN(C)C(=O)c1cc(-c2ccncc2)c(-c2ccc(Cl)c(O)c2)o1`, `CN(C)CCNS(=O)(=O)c1ccc(-c2ccnc3[nH]ccc23)cc1` is higher in “MOTILITY REDUCTION/CYTOTOXICITY” value: 20% for the first, 26.7% for the second.

Compared with `Cc1ccc(NC(=O)c2cccc(C#N)c2)cc1-c1ccc(C(=O)Nc2ccncc2)cc1`, `Cc1ccc(F)c(C(=O)Nc2cccc(-c3nn4ccccc4c3-c3ccnc(Nc4cccc(F)c4)n3)c2)c1F` is lower in “MOTILITY REDUCTION/CYTOTOXICITY” value: 73.4% for the first, 0% for the second.

Compared with `Cc1cc(NCC(c2ccccc2)c2ccccc2)nc(NCc2ccc(C(F)(F)F)cc2)n1`, `NCC(NC(=O)c1cc(-c2ccccc2)c(-c2ccnc3[nH]ccc23)s1)c1ccccc1` (centres undefined) is lower in “MOTILITY REDUCTION/CYTOTOXICITY” value: 53.4% for the first, 0% for the second.

Compared with `O=C(Nc1n[nH]c2nc(-c3ccco3)c(Br)cc12)C1CCN(Cc2ccccc2)C1` (centres undefined), `CC(=O)Nc1n[nH]c2ncc(-c3ccccc3)cc12` is lower in “MOTILITY REDUCTION/CYTOTOXICITY” value: 33.4% for the first, 0% for the second.

First: COc1ccccc1C1=C(Nc2ccc(O)c(Cl)c2)C(=O)NC1=O
Second: O=S(=O)(c1cccc(F)c1)c1ccc(Nc2ncnc3cc(Br)sc23)cc1Cl
The “MOTILITY REDUCTION/CYTOTOXICITY” value of the first is lower: 0% for the first, 73.4% for the second.

`Cc1c(Cn2ccn3c(=O)cc(N4CCOCC4)nc23)cccc1C(F)(F)F` and `Cc1c(Cn2c(C)nn3c(=O)cc(N4CCOC(C)C4)nc23)cccc1C(F)(F)F` (centres undefined) are the same in “MOTILITY REDUCTION/CYTOTOXICITY” value: 0% for the first, 0% for the second.

`CCS(=O)(=O)c1ccc(OC)c(Nc2ncc(-c3ccc(F)cc3)o2)c1` and `Cc1cc(N2CCC(NS(=O)(=O)c3ccc(F)cc3)CC2)nc(Nc2cccc(C#N)c2)n1` are the same in “MOTILITY REDUCTION/CYTOTOXICITY” value: 0% for the first, 0% for the second.

Going from `Cc1c(O)cccc1Nc1ccnc2ccc(C(F)(F)F)cc12` to `CN(c1ccc(NC(=O)Nc2cc(C(F)(F)F)ccc2F)cc1)c1ccnc(Nc2ccc(S(N)(=O)=O)cc2)n1`, the “MOTILITY REDUCTION/CYTOTOXICITY” value rises from 40% to 100%.

First: CCn1c(-c2nonc2N)nc2c(-c3ccccc3)ncc(OCCCN)c21
Second: Cc1occc1-c1ncc(OC[C@@H](N)Cc2c[nH]c3ccccc23)cc1-c1ccc2[nH]nc(C)c2c1
The “MOTILITY REDUCTION/CYTOTOXICITY” value of the first is higher: 100% for the first, 0% for the second.

Compared with `COc1cc2ncn(-c3cc(OCC4CCCCC4)c(C(N)=O)s3)c2cc1OC`, `COc1cc2ncn(-c3cc(OCC4CCCO4)c(C(N)=O)s3)c2cc1OC` (centres undefined) is higher in “MOTILITY REDUCTION/CYTOTOXICITY” value: 33.4% for the first, 46.7% for the second.

Compared with `COC(=O)Nc1nc2ccc(Oc3ccc(NC(=O)Nc4cc(F)ccc4F)cc3)cc2[nH]1`, `COC(=O)Nc1nc2cc(Oc3ccc(NC(=O)Nc4cc(C(F)(F)F)ccc4F)cc3)ccc2[nH]1` is lower in “MOTILITY REDUCTION/CYTOTOXICITY” value: 40% for the first, 0% for the second.

`O=c1cc(N2CCOCC2)nc2n(Cc3cccc(Cl)c3Cl)c3ccccc3n12` and `CC(C)c1nc(-c2cccc(NS(=O)(=O)c3c(F)cccc3F)c2)c(-c2ccnc(Nc3ccc(N4CCOCC4)nc3)n2)s1` are the same in “MOTILITY REDUCTION/CYTOTOXICITY” value: 0% for the first, 0% for the second.

`COc1ccc(COc2cc(-n3cnc4ccccc43)sc2C(N)=O)cc1` and `CS(=O)(=O)CCNCc1nc(-c2ccc3ncnc(Nc4ccc(OCc5ccccc5)c(Cl)c4)c3c2)cs1` are the same in “MOTILITY REDUCTION/CYTOTOXICITY” value: 0% for the first, 0% for the second.

Compared with `COc1cc(Nc2nccc(N3CCC(NC(=O)C(C)c4ccc(Cl)cc4)C3)n2)cc(OC)c1OC` (centres undefined), `COc1ccc(Nc2ncc(C#N)c(Nc3ccccc3C(N)=O)n2)cc1N1CCN(C)CC1` is lower in “MOTILITY REDUCTION/CYTOTOXICITY” value: 66.7% for the first, 13.4% for the second.

Going from `CC(C)c1cc(-c2ccc3c(N)n[nH]c3c2)nc(N)n1` to `C[C@@H]1CCCCN1c1cc(-c2ccc3c(N)n[nH]c3c2)nc(N)n1`, the “MOTILITY REDUCTION/CYTOTOXICITY” value rises from 0% to 13.4%.

First: Nc1ncc(-c2cccnc2)c2scc(-c3ccc4c(c3)CCN4C(=O)Cc3ccccc3)c12
Second: Nc1ncnc2occ(-c3ccc4c(c3)CCN4C(=O)Cc3cc(F)ccc3F)c12
The “MOTILITY REDUCTION/CYTOTOXICITY” value of the first is lower: 0% for the first, 16.7% for the second.

First: O=C(Nc1cccc(-c2nn3ncccc3c2-c2ccnc(Nc3cccnc3)n2)c1)c1c(F)cccc1F
Second: CNC(=O)c1ccccc1Nc1nc(Nc2cccc(CS(C)(=O)=O)c2)ncc1C
The “MOTILITY REDUCTION/CYTOTOXICITY” value of the first is lower: 0% for the first, 33.4% for the second.

Compared with `CCn1c(-c2cccnc2O)nc2cnccc21`, `CCNCC(Cc1ccccc1)NC(=O)c1cc(Br)c(-c2ccnc3[nH]ccc23)s1` (centres undefined) is lower in “MOTILITY REDUCTION/CYTOTOXICITY” value: 13.4% for the first, 0% for the second.

For `NC(CNC(=O)c1cc(Br)c(-c2ccnc3[nH]ccc23)s1)c1ccccc1` (centres undefined), the “MOTILITY REDUCTION/CYTOTOXICITY” value was 40%.
